From patent US8586533B2, “Treatment of early-stage osteoarthritis” (Kaohsiung Medical University, priority 2008, dated 2013)

Key:
[1] = tested on: human articular chondrocytes; assay: Dimethylmethylene blue (DMMB) assay of GAG levels in chondrocyte cultures; assay type: cell-based; conditions: for GAG levels versus control group: 10 nM
Procedure: Chondrocyte cultures were divided into 4 groups.
Alginate beads were dissolved as described above and further digested by papain (300 μg/ml) at 60° C. for 18 hours. The levels of DNA and sulfated glycosaminoglycan (GAG) in the samples were quantified using Hoechst 33258 dye and 1,9-dimethylmethylene blue dye, respectively. A standard curve for the DMMB assay was generated using aqueous chondroitin sulfate C solution (Sigma-Aldrich, St. Louis, Mo.) at concentrations ranging from […].

rat articular cartilage [2] = assay: Papain-induced OA rat model, Safranin O-stained GAG histomorphometry; assay type: in vivo, Sprague-Dawley rats; conditions: for GAG level (red:total ratio) versus OA group: p<0.01
Procedure: (§1) Fifty-four 12-week-old male Sprague-Dawley rats (250-300 gm) were purchased from BioLASCO Taiwan and housed under standard laboratory conditions (temperature 24° C., 12-hour light-dark cycle) with food and water ad libitum. The animals were acclimatized to the laboratory environment for 1 week before the experiments.
(§2) Rats were divided into the following 3 groups: OA (OA induction without PTH [1-34] treatment) (n=18), OA plus PTH (PTH [1-34] treatment followed by OA induction) (n=18), and PTH (PTH [1-34] treatment without OA induction) (n=18). Each left knee, which served as the contralateral control joint, was injected with vehicle without PTH treatment or OA induction. The right knees were the study joints. OA was induced in the right knees of rats in the OA and OA plus PTH groups with intraarticular injections of 20 μl of 4% papain solution and 20 μl of 0.03M cysteine. The injections were given with a 26-gauge needle via the patellar tendon on days 1, 4, and 7 of the experiment (see e.g., Nucl Med Commun (1996) 17(6): 529-35). In the OA plus PTH group, after OA induction, the right knees were injected intraarticularly with 40 μl of 10 nM PTH (1-34) every 3 days until rats were killed. In the PTH group, the same PTH (1-34) treatment was performed but without OA induction. Six rats from each group were killed by CO2 inhalation at the same time points as rats in the OA plus PTH group, in which PTH (1-34) treatment was given for 1, 3, and 5 weeks.
(§3) After rats were killed, the knees were harvested, and the tibia plateaus with articular cartilage were collected and fixed with 10% neutral buffered formalin prior to histologic preparation. The samples were then decalcified in 10% formic acid/PBS. The decalcified tibia articular samples were paraffin embedded, and 5-μm microsections in the coronary plane were prepared. GAG was stained with Safranin O-fast green (1% Safranin O counterstained with 0.75% hematoxylin and then 1% fast green) (Sigma, St. Louis Mo.). Localized type II collagen and type X collagen were immunostained. Apoptotic cells in cartilage were TUNEL stained.
GAG was stained red by Safranin O, and the total and red-stained areas in the articular cartilage of each proximal tibia were measured using Image-Pro Plus software, version 5.0. The ratio of red stained area to total area (red:total) in each group was calculated.
Methods are as described above in the Sections entitled “Animal Experiments” and “Osteoarthritis Induction and PTH Treatment” except that the concentration of the administered dose of PTH (1-34) was 5 nM, 10 nM, or 100 nM. Safranin O-stained articular cartilage in the proximal tibia from the contralateral control joints of rats in the OA group and the study joints of rats in the OA and OA plus PTH groups are measured for the ratio of Safranin O-stained area to total area. The ratios of Safranin O-stained area to total area (red/total) among all groups after 5 weeks of PTH treatment are compared. Bars show the mean and SEM of 6 samples. Data are evaluated by one-way analysis of variance, and multiple comparisons are performed using Scheffe's method. **=P<0.01: the control joints versus study joints in the OA group at the indicated time point; ##=P<0.01: the OA joints versus study joints in groups of OA plus PTH 5 nM, OA plus PTH 10 nM, and OA plus PTH 100 nM.

rat articular cartilage [3] = assay: Papain-induced OA rat model, type II and type X collagen immunohistochemistry; assay type: in vivo, Sprague-Dawley rats; conditions: OA plus PTH group, 10 nM intraarticular
Procedure: as §1, §2, §3
The tibia articular sections were rehydrated, and the endogenous peroxidase in tissue was blocked with 3% hydrogen peroxide. Samples were digested by enzymes for epitope retrieval before incubation with primary antibodies (see e.g. J Histochem Cytochem (2002) 50(8): 1049-58). The optimal condition for enzyme digestion for type II collagen immunostaining was a mixture of 2.5% hyaluronidase and 1 mg/ml of Pronase in PBS (pH 7.4; Sigma) at 37° C. for 1 hour. […] The relative density of immunostaining (density/area; mean±SEM area 25.44±2.77 mm^2) was measured using Image-Pro Plus software, version 5.0 (Media Cybernetics).

rat articular cartilage [4] = assay: Papain-induced OA rat model, TUNEL staining of tibia articular sections; assay type: in vivo, Sprague-Dawley rats; conditions: OA plus PTH group, 10 nM intraarticular
Procedure: as §1
Rats were divided into the following 3 groups: OA (OA induction without PTH [1-34] treatment) (n=18), OA plus PTH (PTH [1-34] treatment followed by OA induction) (n=18), and PTH (PTH [1-34] treatment without OA induction) (n=18). Each left knee, which served as the contralateral control joint, was injected with vehicle without PTH treatment or OA induction. The right knees were the study joints. OA was induced in the right knees of rats in the OA and OA plus PTH groups with intraarticular injections of 20 μl of 4% papain solution and 20 μl of 0.03M cysteine. The injections were given with a 26-gauge needle via the patellar tendon on days 1, 4, and 7 of the experiment (see e.g., Nucl Med Commun (1996) 17(6): 529-35). […]
Apoptotic cells in each section were measured by TUNEL staining using the In Situ Cell Death Detection Kit, TMR red. […] DAPI-stained cells (mean±SEM 150±40) were counted in the center area of the cartilage in tibia plateaus. […]

## PTH (1-34): 34-amino acid long peptide made up of amino-terminal amino acids 1 through 34 of human parathyroid hormone
[1]; PTH group (no azaC)
  GAG levels versus control group: not significantly different
[1]; azaC plus PTH group, 10 nM, 3, 7, and 10 days, P<0.01
  GAG levels versus azaC group: significantly higher
[1]; azaC plus PTH group, after 7 and 10 days, P<0.01
  GAG levels versus control group: higher
Rat articular cartilage [2]; 5 nM, intraarticular every three days, 5 weeks
  GAG level (red:total ratio) versus OA group: significantly higher
Rat articular cartilage [2]; 10 nM, intraarticular every three days, 5 weeks
  GAG level (red:total ratio) versus OA group: significantly higher
Rat articular cartilage [2]; 100 nM, intraarticular every three days, 5 weeks
  GAG level (red:total ratio) versus OA group: significantly higher
Rat articular cartilage [2]; 5, 10, or 100 nM, intraarticular every three days, 5 weeks
  GAG level, control group versus PTH-treated groups: no significant difference
Rat articular cartilage [2]; OA plus PTH group, 10 nM intraarticular, 1 and 3 weeks, P<0.01
  red:total ratio versus contralateral control: significantly lower
Rat articular cartilage [2]; OA plus PTH group, 10 nM intraarticular, 5 weeks
  red:total ratio versus contralateral control cartilage: not significantly different
Rat articular cartilage [2]; OA plus PTH group, intraarticular 40 μl of 10 nM every 3 days, 1, 3, and 5 weeks, P<0.01
  red:total ratio (Safranin O-stained area to total area, GAG) versus OA group: significantly higher
Rat articular cartilage [2]; PTH group (no OA induction), 10 nM intraarticular, any time point
  red:total ratio, study cartilage versus contralateral control cartilage: no significant differences
Rat articular cartilage [3]; 3 and 5 weeks
  Immunolocalized type X collagen in cartilage compared with OA group: less evident
Rat articular cartilage [3]; 3 weeks
  density of immunolocalized type II collagen versus contralateral control cartilage: not different
Rat articular cartilage [3]; 3 weeks, P<0.05
  density of immunolocalized type II collagen versus OA group: significantly higher
Rat articular cartilage [3]; 5 weeks
  density of immunolocalized type II collagen versus OA group (P<0.01) and contralateral control (P<0.05): significantly higher
Rat articular cartilage [4]
  rate of apoptosis of chondrocytes in study cartilage versus contralateral control cartilage: no significant difference
Rat articular cartilage [4]; P<0.01
  rate of apoptosis of chondrocytes in study cartilage versus OA group: significantly lower
